The values below come from ChEMBL document CHEMBL1201862, “PubChem BioAssay data set” (2004).

Test systems include 786-0; A549; COLO 205; DU-145; EKVX; HCC 2998; HOP-62; HT-29; K562; LOX IMVI; MDA-MB-435; NCI-H460; NCI-H522; OVCAR-3; OVCAR-8; RPMI-8226; RXF 393; SK-MEL-28; TK-10; MOLT-4.
What all share (test): growth of human tumour cells (NCI), 48 h

Molecules are shown by their SMILES. Where a name gives a salt, the structure may show the parent alone.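 Protocol summary: plate cells (96-well), add compound at 5 concentrations, incubate 48 h, interpolate endpoints linearly. GI50: concentration for 50% inhibition of growth.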 Calls of active or inactive are those of the source. Rule as the data show it: active = GI50 up to about 1.1 µM and inactive = higher. Square brackets hold non-standard residues; d marks the D form. Peptide text beside a SMILES is read from it.

With `CN(C)CCCc1cccnc1`, the GI50 in the experiment with 786-0, in the experiment on A549, in the experiment on COLO 205, in the experiment on DU-145, in the experiment with EKVX and in the experiment on HCC 2998 was > 100 µM (inactive) throughout. In addition, the GI50 in the experiment on HOP-62, in the experiment with HT-29, in the experiment on K562, with LOX IMVI, with MDA-MB-435 and in the experiment on NCI-H460 was > 100 µM (inactive) each time. Moreover, the GI50 with NCI-H522, in the experiment with OVCAR-3, with OVCAR-8, in the experiment with RPMI-8226, in the experiment on RXF 393 and in the experiment on SK-MEL-28 was > 100 µM (inactive) throughout. Further, in the experiment on TK-10, the GI50 was > 100 µM (inactive).
Take `O=[N+]([O-])c1ccc2sc(/C=N/c3ccccn3)cc2c1`: the GI50 with 786-0 is > 100 µM (inactive); with A549 it was > 100 µM (inactive); with COLO 205 it was > 100 µM (inactive); with DU-145 it was 77.6 µM (inactive); with EKVX, 69 µM (inactive); with HCC 2998 it was > 100 µM (inactive). Moreover, the GI50 in the experiment on HOP-62 is > 100 µM (inactive); in the experiment with HT-29 it was > 100 µM (inactive); with K562, 26.8 µM (inactive); in the experiment with LOX IMVI, 31.9 µM (inactive); in the experiment on MDA-MB-435, 71.6 µM (inactive); in the experiment with MOLT-4 it was 19.7 µM (inactive). Further, the GI50 in the experiment with NCI-H460 is > 100 µM (inactive); in the experiment on NCI-H522, > 100 µM (inactive); in the experiment on OVCAR-3, 41.8 µM (inactive); in the experiment with OVCAR-8 it was 35.2 µM (inactive); in the experiment with RPMI-8226 it was 22.6 µM (inactive); in the experiment with RXF 393 it was > 100 µM (inactive). The GI50 in the experiment on SK-MEL-28 and in the experiment with TK-10 was > 100 µM (inactive) throughout.
With `O=C1Nc2cc(Cl)ccc2C(=O)N2CCC[C@@H]12`, the GI50 is > 100 µM (inactive) in the experiment on 786-0; > 100 µM (inactive) in the experiment with A549; 57.1 µM (inactive) in the experiment with COLO 205; > 100 µM (inactive) in the experiment on DU-145; > 100 µM (inactive) in the experiment on EKVX; > 100 µM (inactive) in the experiment with HCC 2998. The GI50 in the experiment with HOP-62, with HT-29, with K562, with LOX IMVI, in the experiment on MDA-MB-435 and with NCI-H460 was > 100 µM (inactive) each time. For the same compound, the GI50 in the experiment with NCI-H522 was 24.9 µM (inactive); in the experiment with OVCAR-8, > 100 µM (inactive); with RPMI-8226 it was > 100 µM (inactive); in the experiment on RXF 393, > 100 µM (inactive); in the experiment with SK-MEL-28 it was > 100 µM (inactive); in the experiment on TK-10, > 100 µM (inactive).
For `N#CC1=C(N)OC(c2cccc([N+](=O)[O-])c2)C1(C#N)C#N` (stereo not drawn), the GI50 in the experiment on 786-0 was 14.9 µM (inactive); in the experiment on A549, 34.8 µM (inactive); in the experiment on COLO 205, 17 µM (inactive); in the experiment with DU-145, 17.3 µM (inactive); with EKVX, 22.1 µM (inactive); with HCC 2998 it was 20.9 µM (inactive). Further, the GI50 in the experiment on HOP-62 is 18.9 µM (inactive); in the experiment with HT-29 it was 19.1 µM (inactive); in the experiment with K562, 26.2 µM (inactive); in the experiment with LOX IMVI it was 15.1 µM (inactive); with MDA-MB-435, 23.3 µM (inactive); with NCI-H522, 14.2 µM (inactive). Also, the GI50 in the experiment on OVCAR-8 was 29.4 µM (inactive); in the experiment with RPMI-8226 it was 18.3 µM (inactive); with RXF 393, 20 µM (inactive); with TK-10 it was 19.1 µM (inactive).
Regarding `COc1cc2c[n+](C)c3c4cc(OC)c(OC)cc4c(OC)cc3c2cc1OC`, the GI50 with 786-0 was 5.43 µM (inactive); in the experiment with A549, > 65.3 µM (inactive); with COLO 205 it was 1.2 µM (inactive); in the experiment with DU-145, 8.45 µM (inactive); in the experiment with EKVX it was > 74.1 µM (inactive); in the experiment with HCC 2998 it was 6.01 µM (inactive). The GI50 in the experiment with HOP-62 is 16.4 µM (inactive); with HT-29, 5.48 µM (inactive); with K562 it was 4.03 µM (inactive); in the experiment on LOX IMVI, 16.7 µM (inactive); with MDA-MB-435 it was 11.2 µM (inactive); in the experiment with NCI-H460, 17.4 µM (inactive). Further, the GI50 with NCI-H522 is 0.0359 µM (active); with OVCAR-3, 2.34 µM (inactive); with OVCAR-8, 0.371 µM (active); in the experiment on RPMI-8226 it was 16.4 µM (inactive); in the experiment with RXF 393 it was 8.83 µM (inactive); in the experiment on SK-MEL-28, 6.43 µM (inactive). Besides, in the experiment on TK-10, the GI50 is > 100 µM (inactive).
On to `CNN1C(=O)c2c(N)c(C#N)c(-c3ccccc3)c(-c3ccccc3)c2C1=O`, for which the GI50 in the experiment with 786-0 is 91.6 µM (inactive); in the experiment with A549 it was > 100 µM (inactive); with COLO 205, > 100 µM (inactive); with DU-145 it was > 100 µM (inactive); in the experiment on EKVX, > 100 µM (inactive); with HCC 2998 it was > 100 µM (inactive). The GI50 in the experiment on K562 was 48.9 µM (inactive); in the experiment on LOX IMVI, > 100 µM (inactive); in the experiment with MDA-MB-435, > 100 µM (inactive); in the experiment with MOLT-4 it was 39.5 µM (inactive); with NCI-H460 it was 71.6 µM (inactive); with NCI-H522, 84.1 µM (inactive). Moreover, the GI50 with OVCAR-3 is 34.6 µM (inactive); with OVCAR-8, 90.6 µM (inactive); in the experiment with RPMI-8226, 24.7 µM (inactive); with RXF 393 it was 82.8 µM (inactive); in the experiment on SK-MEL-28, > 100 µM (inactive); in the experiment with TK-10 it was > 100 µM (inactive).
As for `CC1(C)N=c2c(ncn2Cc2ccccc2)=C(C(N)=O)N1`, the GI50 in the experiment with 786-0, in the experiment on A549, in the experiment on COLO 205, in the experiment with DU-145, in the experiment on EKVX and in the experiment with HCC 2998 was > 100 µM (inactive) each time. The GI50 in the experiment with HOP-62, in the experiment on HT-29, in the experiment on K562, with LOX IMVI, in the experiment with MDA-MB-435 and in the experiment with NCI-H460 was > 100 µM (inactive) each time. The GI50 with NCI-H522, in the experiment on OVCAR-3, in the experiment on OVCAR-8, in the experiment on RPMI-8226, in the experiment with RXF 393 and with SK-MEL-28 was > 100 µM (inactive) throughout. In addition, in the experiment on TK-10, the GI50 was > 100 µM (inactive).
For `COc1ccccc1N1C(=O)/C(=C\c2cc(OC)c(OC)c(OC)c2)S(=O)(=O)C1c1ccccc1` (stereo not drawn), the GI50 with 786-0 was 54.7 µM (inactive); in the experiment with A549, 44 µM (inactive); in the experiment on COLO 205 it was 26.9 µM (inactive); in the experiment on DU-145 it was 62.1 µM (inactive); in the experiment with HCC 2998 it was 79.4 µM (inactive); in the experiment on HOP-62, 37.7 µM (inactive). For the same compound, the GI50 in the experiment on K562 is 28.6 µM (inactive); in the experiment on LOX IMVI, 29.4 µM (inactive); with MDA-MB-435, 16 µM (inactive); in the experiment on MOLT-4, 31.8 µM (inactive); in the experiment with NCI-H460, 61.1 µM (inactive); in the experiment with NCI-H522 it was 17 µM (inactive). In addition, the GI50 with OVCAR-3 is 18.2 µM (inactive); in the experiment on OVCAR-8, 37.2 µM (inactive); with RPMI-8226, 20.5 µM (inactive); in the experiment on RXF 393, 10.6 µM (inactive); in the experiment on SK-MEL-28, 27.4 µM (inactive); in the experiment with TK-10, > 100 µM (inactive).
On to `CC(=O)/N=C1/N(/C=C2\C(=O)Oc3ccccc3C2=O)C(=O)/C(=C/c2ccccc2Cl)N1C`, for which the GI50 was > 100 µM (inactive) with 786-0; > 100 µM (inactive) in the experiment with A549; > 100 µM (inactive) in the experiment with COLO 205; > 100 µM (inactive) in the experiment with DU-145; 84.9 µM (inactive) in the experiment with EKVX; > 100 µM (inactive) with HCC 2998. Besides, the GI50 in the experiment on HOP-62, in the experiment on HT-29, in the experiment with K562, in the experiment with LOX IMVI, with MDA-MB-435 and in the experiment on MOLT-4 was > 100 µM (inactive) each time. In addition, the GI50 in the experiment with NCI-H460, in the experiment with NCI-H522, with OVCAR-8, in the experiment with RPMI-8226, in the experiment on RXF 393 and in the experiment with SK-MEL-28 was > 100 µM (inactive) each time.
Consider `N=C(N)NCCC[C@H]1NC(=O)[C@@H](CCC(=O)O)NC(=O)[C@@H](CC(=O)O)NC(=O)[C@@H](CCC(=O)O)NC(=O)[C@H](Cc2c[nH]c3ccccc23)NC1=O` (cyclo(W[dE][dD][dE][dR])), for which the GI50 in the experiment with 786-0, in the experiment on A549, with COLO 205, in the experiment on DU-145, in the experiment on EKVX and in the experiment on HCC 2998 was > 7.5 µM (inactive) in each case. In addition, the GI50 with HOP-62, in the experiment on HT-29, in the experiment on K562, with LOX IMVI, with MDA-MB-435 and in the experiment on MOLT-4 was > 7.5 µM (inactive) each time. Also, the GI50 in the experiment with NCI-H460, in the experiment on NCI-H522, in the experiment with OVCAR-3, in the experiment with OVCAR-8, with RPMI-8226 and in the experiment on RXF 393 was > 7.5 µM (inactive) each time. Also, the GI50 with TK-10 is > 7.5 µM (inactive).
With `NCCCCN` [PUTRESCINE HYDROCHLORIDE], the GI50 in the experiment with 786-0, with A549, in the experiment with COLO 205, with DU-145, in the experiment with EKVX and with HCC 2998 was > 100 µM (inactive) in each case. Further, the GI50 is > 100 µM (inactive) in the experiment on HOP-62; > 100 µM (inactive) with HT-29; > 100 µM (inactive) in the experiment with K562; > 100 µM (inactive) in the experiment on LOX IMVI; 8.36 µM (inactive) with MDA-MB-435; > 100 µM (inactive) with MOLT-4. In addition, the GI50 with NCI-H460, in the experiment with NCI-H522, in the experiment with OVCAR-3, with OVCAR-8, with RXF 393 and in the experiment with SK-MEL-28 was > 100 µM (inactive) each time. In addition, the GI50 with TK-10 was > 100 µM (inactive).
